Test results reported in patent publication US7135466B2 (Kirin Beer Kabushiki Kaisha, priority 1999, dated 2006).
Read-outs that look alike come from different tables or passages of the source.

Key:
c-kit = molecular target: T1, c-kit (Homo sapiens, UniProt P10721); assay: Inhibitory activity against c-kit autophosphorylation (MO7e cells, h-SCF); type: cell-based; details: for IC50: MO7e cells, read-out: c-kit IC50; for inhibition at 1 µM: Mo7e, at 1000 nM
T1 construct: MO7e (human megakaryocytic leukemia cell line) which had been arrested for 20 hr; endogenous in cells; host or cells: MO7e human megakaryocytic leukemia cell line
In short: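 Ligand-induced c-kit tyrosine phosphorylation is measured in MO7e cells that were quiesced 20 hr and preincubated with compound for 1 hr prior to a 5 min pulse of 50 ng/ml human SCF. Phospho-c-kit is detected by anti-phosphotyrosine capture ELISA, A450.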

PDGF-Ra = molecular target: T2, PDGF-Ra (Homo sapiens, UniProt P16234); assay: Inhibitory activity against PDGF-Ra phosphorylation by PDGF-AA stimulation using G292; type: cell-based; details: for IC50: > means inhibition at indicated concentration not more than 50%, < and << not less than 50%, read-out: PDGF (E) IC50; for inhibition at 0.1 µM: G292, at 100 nM, read-out: PDGF (E) inhibition (%) at 100 nM
T2 construct: host or cells: G-292 human osteosarcoma cells
In short: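 G-292 human osteosarcoma cells, serum-starved overnight in 0.1% FBS, were pretreated with compound in DMSO for 1 hr at 37 °C, then stimulated with 50 ng/ml PDGF-AA for 5 min. Lysates were captured on anti-phosphotyrosine PY-20 plates and probed with anti-PDGF-Ra plus HRP secondary; absorbance read at 450 nm.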

[1] = figure within parentheses in −( ) or >1000( )

T1 sequence (P10721 26-976): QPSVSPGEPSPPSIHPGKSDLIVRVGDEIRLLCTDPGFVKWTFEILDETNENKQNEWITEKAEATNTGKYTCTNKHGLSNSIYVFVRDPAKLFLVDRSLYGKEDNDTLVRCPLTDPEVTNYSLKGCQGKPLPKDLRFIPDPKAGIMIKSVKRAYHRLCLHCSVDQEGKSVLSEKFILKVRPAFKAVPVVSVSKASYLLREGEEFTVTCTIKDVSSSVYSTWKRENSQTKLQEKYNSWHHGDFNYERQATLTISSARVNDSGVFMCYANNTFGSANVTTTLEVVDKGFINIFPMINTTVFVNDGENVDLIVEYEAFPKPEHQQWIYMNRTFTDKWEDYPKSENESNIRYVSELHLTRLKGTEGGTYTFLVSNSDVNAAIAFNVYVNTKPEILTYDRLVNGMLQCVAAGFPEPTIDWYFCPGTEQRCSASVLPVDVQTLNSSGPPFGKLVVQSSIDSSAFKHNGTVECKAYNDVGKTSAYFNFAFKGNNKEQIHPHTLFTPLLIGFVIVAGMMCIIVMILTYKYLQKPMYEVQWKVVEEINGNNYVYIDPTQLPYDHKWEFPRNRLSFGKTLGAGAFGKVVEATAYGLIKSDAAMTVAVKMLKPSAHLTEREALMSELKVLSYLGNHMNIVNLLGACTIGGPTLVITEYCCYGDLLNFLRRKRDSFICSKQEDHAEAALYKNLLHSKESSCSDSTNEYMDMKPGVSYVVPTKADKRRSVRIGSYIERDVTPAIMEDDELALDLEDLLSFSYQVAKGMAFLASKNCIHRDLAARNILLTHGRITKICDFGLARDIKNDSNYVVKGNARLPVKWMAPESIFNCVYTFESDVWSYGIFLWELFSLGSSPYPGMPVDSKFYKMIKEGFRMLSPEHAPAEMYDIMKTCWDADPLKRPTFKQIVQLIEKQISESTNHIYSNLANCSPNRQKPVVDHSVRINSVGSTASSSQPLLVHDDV
T2 sequence (P16234 24-1089): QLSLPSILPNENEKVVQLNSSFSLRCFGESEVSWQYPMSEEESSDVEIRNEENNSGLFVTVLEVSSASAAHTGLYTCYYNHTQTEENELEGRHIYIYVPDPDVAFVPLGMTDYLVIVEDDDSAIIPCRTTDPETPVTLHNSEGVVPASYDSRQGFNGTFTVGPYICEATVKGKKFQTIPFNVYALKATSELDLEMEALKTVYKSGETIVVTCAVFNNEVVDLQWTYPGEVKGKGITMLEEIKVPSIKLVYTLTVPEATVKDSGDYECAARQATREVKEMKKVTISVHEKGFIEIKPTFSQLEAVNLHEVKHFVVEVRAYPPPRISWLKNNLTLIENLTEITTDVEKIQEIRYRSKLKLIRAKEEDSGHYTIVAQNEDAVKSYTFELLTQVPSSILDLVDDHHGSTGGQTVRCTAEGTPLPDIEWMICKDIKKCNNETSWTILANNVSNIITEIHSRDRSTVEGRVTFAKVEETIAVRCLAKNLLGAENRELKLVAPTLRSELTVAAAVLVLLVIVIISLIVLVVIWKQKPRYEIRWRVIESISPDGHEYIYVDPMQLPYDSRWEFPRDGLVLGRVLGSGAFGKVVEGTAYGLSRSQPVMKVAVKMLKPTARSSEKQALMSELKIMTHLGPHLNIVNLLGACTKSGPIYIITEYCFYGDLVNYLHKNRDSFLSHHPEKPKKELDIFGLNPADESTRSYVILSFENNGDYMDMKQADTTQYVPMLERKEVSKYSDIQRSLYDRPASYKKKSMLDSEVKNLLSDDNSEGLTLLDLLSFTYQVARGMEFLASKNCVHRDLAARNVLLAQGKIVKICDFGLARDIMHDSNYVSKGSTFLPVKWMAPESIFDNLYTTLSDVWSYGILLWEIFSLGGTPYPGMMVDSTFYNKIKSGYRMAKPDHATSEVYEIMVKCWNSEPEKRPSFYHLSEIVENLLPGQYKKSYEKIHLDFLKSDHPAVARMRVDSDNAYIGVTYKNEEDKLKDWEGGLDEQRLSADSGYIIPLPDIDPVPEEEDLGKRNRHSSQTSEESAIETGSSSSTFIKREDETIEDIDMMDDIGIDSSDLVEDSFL

Row | IC50 (PDGF-Ra) | IC50 (c-kit; h-SCF 50 ng/ml) | IC50 (PDGF-Ra; Pharmacological Test Example 1) | SMILES | also measured
1 | – | 514 nM | 17 nM | COc1cc2nccc(Oc3cc(C)c(NC(=O)OCc4ccccc4C)cc3C)c2cc1OC [Example 253, 2-Methylbenzyl N-{4-[(6,7-dimethoxy-4-quinolyl)oxy]-2,5-dimethylphenyl}carbamate] | –
2 | – | 49 nM | 19 nM | COc1cc2nccc(Oc3cc(C)c(NC(=O)OCCCOc4cccc(F)c4)cc3C)c2cc1OC [Example 149, 3-(3-Fluorophenoxy)propyl N-{4-[(6,7-dimethoxy-4-quinolyl)oxy]-2,5-dimethylphenyl}carbamate] | –
3 | – | 71 nM | 43 nM | C=CCOC(=O)Nc1cc(C)c(Oc2ccnc3cc(OC)c(OC)cc23)cc1C [Example 373, Allyl N-{4-[(6,7-dimethoxy-4-quinolyl)oxy]-2,5-dimethylphenyl}carbamate] | –
4 | 27 nM | – | – | COc1cc2nccc(Oc3ccc(NC(=S)NC(=O)N(C(C)C)C(C)C)cc3)c2cc1OC [Example 1043, N-{4-[(6,7-Dimethoxy-4-quinolyl)oxy]phenyl}-{[(diisopropylamino)carbonyl]amino}methanethioamide] | IC50 (c-kit; h-SCF stimulation): 449 nM
5 | – | 52 nM | < 10 nM | COc1cc2ncnc(Oc3ccc(NC(=O)OCc4ccc(C)cc4)cc3)c2cc1OC [Example 1, 4-Methylbenzyl N-{4-[(6,7-dimethoxy-4-quinazolinyl)oxy]phenyl}carbamate] | –
6 | – | 162 nM | < 10 nM | COc1cccc(OCCCOC(=O)Nc2ccc(Oc3ccnc4cc(OC)c(OC)cc34)c(C)c2C)c1 [Example 48, 3-(3-Methoxyphenoxy)propyl N-{4-[(6,7-dimethoxy-4-quinolyl)oxy]-2,3-dimethylphenyl}carbamate] | –
7 | < 10 nM | – | – | COc1cc2nccc(Oc3cc(C)c(NC(=O)OCCCN4CCOCC4)cc3C)c2cc1OC [Example 422, 3-Morpholinopropyl N-{4-[(6,7-dimethoxy-4-quinolyl)oxy]-2,5-dimethylphenyl}carbamate] | IC50 (c-kit; 50 ng/ml h-SCF): 119 nM
8 | – | 45 nM | < 10 nM | COc1cc2ncnc(Oc3ccc(NC(=O)OCCCSc4ccccn4)cc3)c2cc1OC [Example 175, 3-(2-Pyridylsulfanyl)propyl N-{4-[(6,7-dimethoxy-4-quinazolinyl)oxy]phenyl}carbamate] | –
9 | 21 nM | – | – | CCCC(CCN(CC)CC)OC(=O)Nc1ccc(Oc2ncnc3cc(OC)c(OC)cc23)cc1 (centres unmarked) [Example 444, 1-[2-(Diethylamino)ethyl]butyl N-{4-[(6,7-dimethoxy-4-quinazolinyl)oxy]phenyl}carbamate] | IC50 (c-kit; 50 ng/ml h-SCF): 972 nM
10 | – | 285 nM | 10 nM | COc1cc2nccc(Oc3ccc(NC(=O)OCCCCCCN(C)C)cc3)c2cc1OC [Example 309, 6-(Dimethylamino)hexyl N-{4-[(6,7-dimethoxy-4-quinolyl)oxy]phenyl}carbamate] | –
11 | – | 53 nM | 18 nM | COc1cc2nccc(Oc3ccc(NC(=O)OCCOc4cccc(F)c4)c(C)c3C)c2cc1OC [Example 208, 2-(3-Fluorophenoxy)ethyl N-{4-[(6,7-dimethoxy-4-quinolyl)oxy]-2,3-dimethylphenyl}carbamate] | –
12 | – | 133 nM | < 10 nM | COc1cc2nccc(Oc3ccc(NC(=O)OCC4CCCC4)cc3)c2cc1OC [Example 394, Cyclopentylmethyl N-{4-[(6,7-dimethoxy-4-quinolyl)oxy]phenyl}carbamate] | –
13 | 32 nM | – | – | CCN(CC)CCNC(=O)Nc1ccc(Oc2ccnc3cc(OC)c(OC)cc23)cc1Cl [Example 650, N-{2-Chloro-4-[(6,7-dimethoxy-4-quinolyl)oxy]phenyl}-N′-[2-(diethylamino)ethyl]urea] | IC50 (c-kit; 50 ng/ml h-SCF): 420 nM
14 | 19 nM | – | – | COc1cc2nccc(Oc3ccc(NCCOc4cccc(C)c4)cc3C)c2cc1OC [Example 878, N-{4-[(6,7-Dimethoxy-4-quinolyl)oxy]-3-methylphenyl}-N-[2-(3-methylphenoxy)ethyl]amine] | IC50 (c-kit; h-SCF stimulation): 65 nM
15 | – | < 30 nM | < 10 nM | COc1cc2nccc(Oc3ccc(NC(=O)OCCCOc4ccccc4F)c(C)c3C)c2cc1OC [Example 143, 3-(2-Fluorophenoxy)propyl N-{4-[(6,7-dimethoxy-4-quinolyl)oxy]-2,3-dimethylphenyl}carbamate] | –
16 | – | 243 nM | 58 nM | COc1cc2nccc(Oc3cc(C)c(NC(=O)OCc4ccc5ccccc5c4)cc3C)c2cc1OC [Example 246, 2-Naphthylmethyl N-{4-[(6,7-dimethoxy-4-quinolyl)oxy]-2,5-dimethylphenyl}carbamate] | –
17 | – | 106 nM | 11 nM | COc1cc2nccc(Oc3cc(C)c(NC(=O)OCc4ccc(F)cc4)cc3C)c2cc1OC [Example 10, 4-Fluorobenzyl N-{4-[(6,7-dimethoxy-4-quinolyl)oxy]-2,5-dimethylphenyl}carbamate] | –

Second part, the compound before the results:

Row | SMILES | IC50 (PDGF-Ra) | IC50 (c-kit; h-SCF 50 ng/ml) | IC50 (PDGF-Ra; Pharmacological Test Example 1) | also measured
18 | COc1cc2nccc(Oc3ccc(NC(=S)NC(=O)c4ccc(Br)s4)c(C)c3)c2cc1OC [Example 692, N-[(5-Bromo-2-thienyl)carbonyl]-N′-{4-[(6,7-dimethoxy-4-quinolyl)oxy]-2-methylphenyl}thiourea] | > 100 nM | – | – | IC50 (c-kit; 50 ng/ml h-SCF): > 1000 nM; inhibition at 1 µM (c-kit; [1]): 20%; inhibition at 0.1 µM (PDGF-Ra; figure within parentheses in >100( )): 35%
19 | COc1cc2nccc(Oc3cc(C)c(NC(=O)OC(C)c4cc(F)c(F)cc4F)cc3C)c2cc1OC (centres unmarked) [Example 94, 1-(2,4,5-Trifluorophenyl)ethyl N-{4-[(6,7-dimethoxy-4-quinolyl)oxy]-2,5-dimethylphenyl}carbamate] | – | – | 31 nM | inhibition at 1 µM (c-kit; figure in parentheses in −( )): 31%
20 | COc1cc2nccc(Oc3ccc(NC(=S)NC(=O)CCc4ccccc4)cc3F)c2cc1OC [Example 1028, N-{4-[(6,7-Dimethoxy-4-quinolyl)oxy]-3-fluorophenyl}-N′-(3-phenylpropanoyl)thiourea] | < 10 nM | – | – | IC50 (c-kit; h-SCF stimulation): 545 nM
21 | COc1cc2ncnc(Oc3ccc(NC(=S)NCc4ccccc4)cc3)c2cc1OC [Example 707, N-Benzyl-N′-{4-[(6,7-dimethoxy-4-quinazolinyl)oxy]phenyl}thiourea] | 17 nM | – | – | IC50 (c-kit; 50 ng/ml h-SCF): 209 nM
22 | COc1cc2ncnc(Oc3ccc(NC(=O)OCCCOc4ccc(Cl)cc4)c(Cl)c3)c2cc1OC [Example 31, 3-(4-Chlorophenoxy)propyl N-{2-chloro-4-[(6,7-dimethoxy-4-quinazolinyl)oxy]phenyl}carbamate] | – | 221 nM | < 10 nM | –
23 | COc1cc2ncnc(Oc3ccc(NC(=S)NC(=O)C4(c5ccccc5)CC4)cc3)c2cc1OC [Example 1195, N-{4-[(6,7-Dimethoxy-4-quinazolinyl)oxy]phenyl}-N′-[(1-phenylcyclopropyl)carbonyl]thiourea] | 21 nM | – | – | IC50 (c-kit; h-SCF stimulation): 530 nM
24 | COc1cc2nccc(Oc3cc(C)c(NC(=O)Oc4ccc(-c5ccccc5)cc4)cc3C)c2cc1OC [Example 295, 4-Phenylphenyl N-{4-[(6,7-dimethoxy-4-quinolyl)oxy]-2,5-dimethylphenyl}carbamate] | – | 178 nM | > 100 nM | inhibition at 0.1 µM (PDGF-Ra; figure in parentheses in >100( )): 45%
25 | COc1cc2ncnc(Oc3ccc(NC(=O)NCCN4CCCCC4)c(Cl)c3)c2cc1OC [Example 677, N-{2-Chloro-4-[(6,7-dimethoxy-4-quinazolinyl)oxy]phenyl}-N′-(2-piperidinoethyl)urea] | 47 nM | – | – | IC50 (c-kit; 50 ng/ml h-SCF): 730 nM
26 | COc1cc2nccc(Oc3ccc(NC(=S)NC(=O)c4ccccc4C)c([N+](=O)[O-])c3)c2cc1OC [Example 925, N-{4-[(6,7-Dimethoxy-4-quinolyl)oxy]-2-nitrophenyl}-N′-(2-methylbenzoyl)thiourea] | 35 nM | – | – | IC50 (c-kit; h-SCF stimulation): 430 nM
27 | COc1cc2ncnc(Oc3ccc(NC(=S)NC(=O)CCc4ccccc4C)cc3)c2cc1OC [Example 1133, N-{4-[(6,7-Dimethoxy-4-quinazolinyl)oxy]phenyl}-N′-[3-(2-methylphenyl)propanoyl]thiourea] | < 10 nM | – | – | IC50 (c-kit; h-SCF stimulation): 42 nM
28 | COc1cc2nccc(Oc3cc(C)c(NC(=O)OC4CCCN(C)C4)cc3C)c2cc1OC (centres unmarked) [Example 463, 1-Methyl-3-piperidyl N-{4-[(6,7-dimethoxy-4-quinolyl)oxy]-2,5-dimethylphenyl}carbamate] | 91 nM | – | – | IC50 (c-kit; 50 ng/ml h-SCF): 432 nM
29 | COc1cc(Oc2ncnc3cc(OC)c(OC)cc23)ccc1NC(=O)OCc1ccccc1Cl [Example 499, 2-Chlorobenzyl N-{4-[(6,7-dimethoxy-4-quinazolinyl)oxy]-2-methoxyphenyl}carbamate] | < 10 nM | – | – | IC50 (c-kit; 50 ng/ml h-SCF): 98 nM
30 | COc1cc2nccc(Oc3ccc(NC(=S)NC(=O)C(C)Oc4ccccc4Cl)cc3Cl)c2cc1OC (centres unmarked) [Example 764, N-{3-Chloro-4-[(6,7-dimethoxy-4-quinolyl)oxy]phenyl}-N′-[2-(2-chlorophenoxy)propanoyl]thiourea] | 14 nM | – | – | inhibition at 1 µM (c-kit; [1]): 19%
31 | COc1cc2ncnc(Oc3ccc(NC(=O)OC(C)c4cc(F)c(F)cc4F)cc3)c2cc1OC (centres unmarked) [Example 95, 1-(2,4,5-Trifluorophenyl)ethyl N-{4-[(6,7-dimethoxy-4-quinazolinyl)oxy]phenyl}carbamate] | – | 962 nM | 16 nM | –
